Biological target: T1, human IR(B) (Homo sapiens, UniProt P06213)
T1 construct: expressed in transfected cells; host or cells: CHO cells (membrane preparation)
Assay: Insulin receptor binding assay (SPA, 125[I]-insulin competition)
Conditions: cell membranes from CHO cells overexpressing human IR(B)
Method: Cell membranes were prepared in 50 mM Tris buffer, pH 7.8 containing 5 mM MgCl2.

T1 sequence (P06213 28-758 limits assumed): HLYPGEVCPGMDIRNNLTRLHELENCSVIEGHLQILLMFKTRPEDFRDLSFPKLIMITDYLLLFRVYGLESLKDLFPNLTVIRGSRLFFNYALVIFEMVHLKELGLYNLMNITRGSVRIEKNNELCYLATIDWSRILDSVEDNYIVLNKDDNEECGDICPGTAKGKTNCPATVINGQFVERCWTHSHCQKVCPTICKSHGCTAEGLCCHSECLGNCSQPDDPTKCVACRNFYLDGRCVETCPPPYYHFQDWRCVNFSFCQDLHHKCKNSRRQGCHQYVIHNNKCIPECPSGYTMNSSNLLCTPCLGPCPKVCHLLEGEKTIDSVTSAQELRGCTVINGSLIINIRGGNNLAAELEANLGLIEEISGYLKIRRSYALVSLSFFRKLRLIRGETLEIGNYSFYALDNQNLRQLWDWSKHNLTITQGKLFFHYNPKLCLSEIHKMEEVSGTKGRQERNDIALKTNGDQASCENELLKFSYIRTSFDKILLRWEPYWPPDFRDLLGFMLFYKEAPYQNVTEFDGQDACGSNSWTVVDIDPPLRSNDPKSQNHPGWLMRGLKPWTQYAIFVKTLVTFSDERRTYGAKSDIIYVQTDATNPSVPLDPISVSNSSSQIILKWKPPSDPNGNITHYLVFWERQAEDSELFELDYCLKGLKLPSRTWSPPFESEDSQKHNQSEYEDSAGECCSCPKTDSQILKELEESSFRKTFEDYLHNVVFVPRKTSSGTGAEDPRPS
T1 sequence (P06213 763-1382 partner limits assumed): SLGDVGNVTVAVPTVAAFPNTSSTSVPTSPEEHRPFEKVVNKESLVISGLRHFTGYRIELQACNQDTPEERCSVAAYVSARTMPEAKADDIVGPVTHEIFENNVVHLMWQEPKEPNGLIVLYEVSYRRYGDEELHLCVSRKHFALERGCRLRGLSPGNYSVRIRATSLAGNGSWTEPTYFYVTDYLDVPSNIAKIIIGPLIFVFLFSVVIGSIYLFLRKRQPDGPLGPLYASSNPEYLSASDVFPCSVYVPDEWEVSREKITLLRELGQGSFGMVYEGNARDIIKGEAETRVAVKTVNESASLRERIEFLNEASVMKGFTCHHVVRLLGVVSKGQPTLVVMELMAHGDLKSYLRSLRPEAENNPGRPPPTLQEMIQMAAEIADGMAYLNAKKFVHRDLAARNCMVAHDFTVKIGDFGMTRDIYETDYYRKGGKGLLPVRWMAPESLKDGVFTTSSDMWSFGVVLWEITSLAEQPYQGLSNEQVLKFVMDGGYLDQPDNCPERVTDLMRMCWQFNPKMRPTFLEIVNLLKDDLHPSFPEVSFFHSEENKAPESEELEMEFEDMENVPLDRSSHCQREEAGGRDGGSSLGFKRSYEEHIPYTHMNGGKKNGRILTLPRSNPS

An IC50 of 1.8 nM was found for “N^6,B29, N^6,B29′-(C3-tartaric acid-C3)insulin human [Dimer 85]” in this work.
